Laboratory results taken from US20060211651A1, “Persulfated oligosaccharide acting on selectins and chemokine” (Taisho Pharmaceutical Co., Ltd., priority 2002, published 2006).

Assays:
[1] = test system: secondary lymphoid tissue chemokine; assay: ELISA, biotinylated versican binding to SLC in presence of glycosaminoglycan; conditions: 100 μg/ml glycosaminoglycan; FIG. 5
Method: (§1) A well of a 96 well flat bottom microtiter plate was coated with BSA (5 μg/ml), anti-versican monoclonal antibody 2B1 (5 μg/ml), CD44-Ig (7 μg/ml), L-selectin-Ig (3 μg/ml), P-selectin-Ig (3 μg/ml) or chemokine (1 μg/ml), and then blocked with a phosphate buffered physiological saline containing 3% by weight of BSA. As the above chemokine, secondary lymphoid tissue chemokine, γ-interferon inducible protein-10, platelet factor 4, stromal cell-derived factor-1β [manufactured by Pepro Tech] and stromal cell-derived factor-1α [manufactured by Pepro Tech] were used.
(§2) Thereafter, the plate was washed with the buffer A, and enzyme-linked immunosorbent assay was performed in the same manner as that of the previous report [Kawashima, H. et al., J. Biol. Chem., 275, 35448-35456 (2000)]. Binding was determined by measuring absorbance at 620 nm using alkaline phosphatase-conjugated streptavidin and Blue Phos™ substrate. In FIG. 5, expression of an abscissa axis is the same as that of FIG. 4.

[2] = test system: P-selectin-Ig; assay: Binding inhibition assay (ELISA), biotinylated versican to P-selectin-Ig, various concentrations; conditions: dose-dependent, FIG. 2 panel B
[3] = biological target: γ-interferon inducible protein-10 (Homo sapiens, UniProt P02778); assay: ELISA, biotinylated versican binding to IP-10 in presence of glycosaminoglycan; conditions: 100 μg/ml glycosaminoglycan; FIG. 5
Chain of γ-interferon inducible protein-10 (P02778 22-98): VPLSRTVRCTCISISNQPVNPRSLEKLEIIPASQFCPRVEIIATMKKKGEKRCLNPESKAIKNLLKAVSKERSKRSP
Method: as §1, §2

[4] = biological target: T1, stromal cell-derived factor-1β (Homo sapiens, UniProt P48061); assay: BIAcore surface plasmon resonance, immobilized glycosaminoglycan vs SDF-1β; assay type: binding; conditions: for Kd / koff / kon: GAG immobilized, 25° C.
T1 construct: purchased Pepro Tech
T1 sequence (P48061 22-93): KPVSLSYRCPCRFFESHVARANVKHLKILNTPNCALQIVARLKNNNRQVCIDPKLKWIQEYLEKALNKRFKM
Method: (§3) Affinity kinetics of the interaction between various CS/DS chains and each of L-selectin, P-selectin, CD44 and chemokine were examined by surface plasmon resonance using BIAcore™ biosensor [manufactured by BIAcore AB].
(§4) All experiments were performed at 25° C. At stages of washing and dissociation, buffer C (20 mM HEPES-NaOH, 0.15M NaCl, 1 mM CaCl2, 1 mM MgCl2, pH6.8) was used as a running buffer.
(§5) First, about 1.8 to 2.0 kiloresonance unit (1 kiloresonance unit=1 ng/mm^2) of streptavidin were covalently immobilized onto B1 sensor chip via a primary amine group using an amine coupling kit [manufactured by Amercham-Bioscience] according to the instruction provided by the manufacturer. The remaining activated groups were blocked with 150 μl of 1M ethanolamine-HCl (pH8.5). Then, each glycosaminoglycan which had been biotinylated at a reducing end was injected to a sensor tip surface by using EZ-link™ biotin-LC-hydrazide [manufactured by Pierce] so as to obtain about 150 resonance unit of an immobilization level, according to the method of Sadir et al. [J. Biol. Chem., 276, 8288-8296 (2001); all teachings of which are hereby incorporated by reference].
(§6) Binding assay was performed by injecting continuously each of various concentrations of secondary lymphoid tissue chemokine, γ-interferon inducible protein-10, stromal cell-derived factor-1β, monomeric L-selectin [manufactured by Genzyme-Techne], monomeric P-selectin [manufactured by Genzyme-Techne] and monomeric CD44, to a glycosaminoglycan-coupled sensor tip at a flow rate of 30 μl/min for 0 to 90 seconds, and then injecting a running buffer thereto. A response in resonance unit was recorded as a function of a time.
(§7) A sensor tip surface was regenerated with 300 μl of 1 M NaCl when chemokine or CD44 was used, or regenerated with 300 μl of 1 M NaCl, and additional 100 μl of 50 mM EDTA (pH8.0), when selectin was used. As a result of regeneration of a sensor tip surface, a remarkable change in a baseline was not observed.
(§8) An affinity kinetic parameter was determined by BIAevaluation 3.0 software [manufactured by Pharmacia Biosensor] using a single site binding model. […] In FIG. 6 and Table 3, SLC denotes secondary lymphoid tissue chemokin, IP-10 denotes γ-interferon inducible protein-10, SDF-1β denotes stromal cell-derived factor-1β, CS E denotes chondroitin sulfate E, and CS A denotes chondroitin sulfate A. In addition, in Table 3, Kd value for the interaction between monomeric CD44 and chondroitin sulfate E is a value calculated from a binding amount at equilibrium, and Kd value of the interaction between CD44 and hyaluronic acid is a value calculated using CD44-Ig.

[5] = biological target: T1, stromal cell-derived factor-1β; assay: ELISA, biotinylated versican binding to SDF-1β in presence of glycosaminoglycan; conditions: 100 μg/ml glycosaminoglycan; FIG. 5
Method: as §1, §2

[6] = biological target: T2, platelet factor 4 (Homo sapiens, UniProt P02776); assay: ELISA, biotinylated versican binding to PF4 in presence of glycosaminoglycan; conditions: 100 μg/ml glycosaminoglycan; FIG. 5
T2 sequence (P02776 32-101): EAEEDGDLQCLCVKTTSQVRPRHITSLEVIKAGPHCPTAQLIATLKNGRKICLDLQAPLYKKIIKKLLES
Method: as §1, §2

[7] = biological target: secondary lymphoid tissue chemokine; assay: BIAcore surface plasmon resonance, immobilized glycosaminoglycan vs SLC; assay type: binding; conditions: for Kd / koff / kon: GAG immobilized, 25° C.
Method: as §3, §4, §5, §6, §7, §8

[8] = biological target: T3, monomeric CD44 (Homo sapiens, UniProt P16070); assay: BIAcore surface plasmon resonance, immobilized glycosaminoglycan vs monomeric CD44; assay type: binding
T3 construct: codons of amino acids positions 172 to 178 of human CD44; Myc-His (from vector pcDNA 3.1/Myc-His(+) B) (C); made in house; host or cells: 293T cells, secreted into conditioned medium and purified on anti-CD44 BRIC 235 Sepharose
T3 sequence (P16070 21-178 limits assumed): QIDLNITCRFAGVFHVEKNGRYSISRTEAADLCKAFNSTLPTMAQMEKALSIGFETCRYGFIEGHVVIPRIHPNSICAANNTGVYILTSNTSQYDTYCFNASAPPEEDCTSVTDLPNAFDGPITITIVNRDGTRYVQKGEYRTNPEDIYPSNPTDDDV
Method: Human-derived CD44 cDNA was prepared by PCR using a sense primer (SEQ ID NO: 1):
Thereafter, the conditioned medium was subjected to immunoaffinity chromatography with anti-CD44 monoclonal antibody BRIC 235-coupled CNBr-activated Sepharose 4B, to obtain monomeric CD44. The resulting soluble CD44 was subjected to SDS-PAGE and silver staining. As a result, the purity of the resulting soluble CD44 was more than 95%.
as §3, §4, §5, §6, §7, §8

[9] = CD44 monomeric, GAG immobilized, 25° C.

Row | inhibition of binding between biotinylated versican and secondary lymphoid tissue chemokine [1] | inhibition of binding between biotinylated versican and P-selectin-Ig [2] | inhibition of binding between biotinylated versican and γ-interferon inducible protein-10 [3] | Kd [4] | koff [4] | kon [4] | inhibition of binding between biotinylated versican and stromal cell-derived factor-1β [5] | inhibition of binding between biotinylated versican and platelet factor 4 [6] | Kd [7] | binding of monomeric CD44 to glycosaminoglycan ([8]; monomeric CD44) | interaction with immobilized glycosaminoglycan (sensorgram) [4] | Kd [8, 9] | koff [8, 9] | kon [8, 9] | Kd ([8]; monomeric CD44, weakly bound, equilibrium value) | Substance | koff [7] | kon [7] | interaction with immobilized glycosaminoglycan (sensorgram) [7]
1 | inhibited | inhibited | inhibited | 86.3 nM | 0.00304 s⁻¹ | 35200 M⁻¹ s⁻¹ | inhibited | inhibited | 101 nM | did not bind | – | – | – | – | – | chondroitin polysulfate [CPS] | 0.00244 s⁻¹ | 24200 M⁻¹ s⁻¹ | –
2 | – | not inhibited | – | – | – | – | – | – | – | – | did not interact | 85200 nM | 0.049 s⁻¹ | 576 M⁻¹ s⁻¹ | – | chondroitin sulfate A [CS A] | – | – | did not interact
3 | inhibited | inhibited | inhibited | 293 nM | 0.0053 s⁻¹ | 18100 M⁻¹ s⁻¹ | inhibited | inhibited | 85.8 nM | – | bound | – | – | – | 211000 nM | chondroitin sulfate E [CS E] | 0.00356 s⁻¹ | 41500 M⁻¹ s⁻¹ | bound
4 | inhibited | inhibited | inhibited | – | – | – | inhibited | inhibited | 32.2 nM | did not bind | – | – | – | – | – | dermatan polysulfate [DPS] | 0.000278 s⁻¹ | 8640 M⁻¹ s⁻¹ | –
